Test results: ChEMBL document CHEMBL1201862, “PubChem BioAssay data set” (2004)
Calls of active or inactive are those of the source.

Assays:
[1] = target: DNA dC->dU-editing enzyme APOBEC-3A (Homo sapiens, UniProt P31941); test: APOBEC3A DNA deaminase inhibitors, dose response, biochemical (AID 504722); assay type: functional
[2] = target: DNA dC->dU-editing enzyme APOBEC-3G (Homo sapiens, UniProt Q9HC16); test: Dose Response confirmation of small molecule APOBEC3G DNA Deaminase Inhibitors via a fluorescence-based single-stranded DNA deaminase assay. [Related pubchem assays (depositor defined):AID493012, AID493028]; assay type: functional
Chain of DNA dC->dU-editing enzyme APOBEC-3G (Q9HC16 whole entry): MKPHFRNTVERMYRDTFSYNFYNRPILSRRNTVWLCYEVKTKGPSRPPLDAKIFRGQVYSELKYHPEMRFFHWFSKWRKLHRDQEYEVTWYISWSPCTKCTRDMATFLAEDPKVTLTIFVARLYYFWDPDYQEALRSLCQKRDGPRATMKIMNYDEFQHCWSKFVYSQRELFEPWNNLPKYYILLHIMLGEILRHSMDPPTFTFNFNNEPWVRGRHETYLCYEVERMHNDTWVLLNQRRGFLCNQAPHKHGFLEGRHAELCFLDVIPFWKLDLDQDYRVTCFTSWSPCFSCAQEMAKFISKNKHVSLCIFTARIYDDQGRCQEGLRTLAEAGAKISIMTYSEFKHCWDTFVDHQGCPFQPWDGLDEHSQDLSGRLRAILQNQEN

[3] = target: T1, Tyrosine-protein phosphatase non-receptor type 11 (Homo sapiens, UniProt Q06124); test: SHP2 phosphatase inhibition, dose response, selectivity assay for STEP inhibitor project, biochemical (AID 602367); assay type: functional; conditions: read-out: IC50_Mean
T1 sequence (Q06124 whole entry): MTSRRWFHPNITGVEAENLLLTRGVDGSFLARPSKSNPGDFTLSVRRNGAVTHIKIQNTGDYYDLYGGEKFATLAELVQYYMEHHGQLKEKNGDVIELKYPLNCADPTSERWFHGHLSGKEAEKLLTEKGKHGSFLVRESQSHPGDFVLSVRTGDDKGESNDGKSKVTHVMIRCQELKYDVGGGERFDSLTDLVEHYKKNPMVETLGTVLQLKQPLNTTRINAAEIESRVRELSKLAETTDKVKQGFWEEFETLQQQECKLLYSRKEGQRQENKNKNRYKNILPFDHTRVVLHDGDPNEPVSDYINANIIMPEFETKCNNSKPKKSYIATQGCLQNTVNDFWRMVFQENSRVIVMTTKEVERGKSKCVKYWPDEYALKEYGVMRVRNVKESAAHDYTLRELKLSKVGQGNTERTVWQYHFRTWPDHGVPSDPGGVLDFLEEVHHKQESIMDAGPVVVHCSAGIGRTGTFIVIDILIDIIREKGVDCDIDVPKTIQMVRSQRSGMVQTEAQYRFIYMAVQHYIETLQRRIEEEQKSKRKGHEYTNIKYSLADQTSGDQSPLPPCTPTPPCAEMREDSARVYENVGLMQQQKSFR

[4] = target: T2, Tyrosine-protein phosphatase non-receptor type 5 (Homo sapiens, UniProt P54829); test: STEP phosphatase inhibitors, confirmation, biochemical, fluorescence intensity, uHTS hits (AID 602372); assay type: functional; conditions: read-out: IC50_Mean
T2 sequence (P54829 whole entry): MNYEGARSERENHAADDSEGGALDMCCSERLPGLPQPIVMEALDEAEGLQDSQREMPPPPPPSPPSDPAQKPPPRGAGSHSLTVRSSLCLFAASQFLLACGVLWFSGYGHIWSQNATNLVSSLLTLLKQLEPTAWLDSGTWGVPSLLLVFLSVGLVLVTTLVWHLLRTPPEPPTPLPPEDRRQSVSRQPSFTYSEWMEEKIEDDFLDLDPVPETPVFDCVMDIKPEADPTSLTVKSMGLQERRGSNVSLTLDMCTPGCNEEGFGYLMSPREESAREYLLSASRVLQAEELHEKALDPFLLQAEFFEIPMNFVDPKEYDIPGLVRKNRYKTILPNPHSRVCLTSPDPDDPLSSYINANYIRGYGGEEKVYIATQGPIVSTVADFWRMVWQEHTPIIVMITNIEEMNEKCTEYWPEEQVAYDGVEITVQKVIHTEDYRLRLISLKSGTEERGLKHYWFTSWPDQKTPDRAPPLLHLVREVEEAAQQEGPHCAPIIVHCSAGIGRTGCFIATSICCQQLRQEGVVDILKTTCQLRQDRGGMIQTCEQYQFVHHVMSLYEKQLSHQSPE

[5] = target: Dual specificity protein phosphatase 3 (Homo sapiens, UniProt P51452); test: VHR phosphatase inhibition, dose response, selectivity assay for STEP inhibitor project, biochemical (AID 602374); assay type: functional; conditions: read-out: IC50_Mean
Chain of Dual specificity protein phosphatase 3 (P51452 whole entry): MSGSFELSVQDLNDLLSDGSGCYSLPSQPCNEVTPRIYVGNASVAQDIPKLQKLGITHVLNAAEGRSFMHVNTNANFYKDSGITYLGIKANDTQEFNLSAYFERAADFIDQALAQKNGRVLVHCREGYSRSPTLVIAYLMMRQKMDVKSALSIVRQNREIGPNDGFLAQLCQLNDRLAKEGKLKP

[6] = target: T3, Tyrosine-protein phosphatase non-receptor type 22 (Homo sapiens, UniProt Q9Y2R2); test: PTPN22 phosphatase inhibition, dose response, selectivity assay for STEP inhibitor project, biochemical (AID 624241); assay type: functional
T3 sequence (Q9Y2R2 whole entry): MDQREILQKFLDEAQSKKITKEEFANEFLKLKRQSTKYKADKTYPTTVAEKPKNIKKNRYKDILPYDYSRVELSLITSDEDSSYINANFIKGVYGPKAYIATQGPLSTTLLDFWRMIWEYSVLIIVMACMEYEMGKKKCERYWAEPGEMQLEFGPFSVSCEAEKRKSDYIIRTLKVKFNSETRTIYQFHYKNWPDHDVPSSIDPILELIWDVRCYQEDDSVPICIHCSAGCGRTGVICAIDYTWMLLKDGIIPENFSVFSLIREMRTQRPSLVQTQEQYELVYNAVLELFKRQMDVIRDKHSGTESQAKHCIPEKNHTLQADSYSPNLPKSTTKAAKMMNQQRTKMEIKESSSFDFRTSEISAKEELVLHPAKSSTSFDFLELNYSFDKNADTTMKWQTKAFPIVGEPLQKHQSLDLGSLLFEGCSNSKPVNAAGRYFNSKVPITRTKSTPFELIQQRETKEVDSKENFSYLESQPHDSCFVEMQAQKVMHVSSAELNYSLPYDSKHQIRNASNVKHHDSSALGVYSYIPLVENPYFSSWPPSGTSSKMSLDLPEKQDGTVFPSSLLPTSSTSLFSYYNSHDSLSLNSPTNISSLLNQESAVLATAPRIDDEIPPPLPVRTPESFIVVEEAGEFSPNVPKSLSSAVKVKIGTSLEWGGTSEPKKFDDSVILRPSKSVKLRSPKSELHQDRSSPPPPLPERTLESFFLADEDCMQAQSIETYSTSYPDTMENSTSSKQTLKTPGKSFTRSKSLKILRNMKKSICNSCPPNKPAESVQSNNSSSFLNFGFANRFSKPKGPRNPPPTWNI

[7] = target: T4, RNA-binding protein pos-1 (Caenorhabditis elegans, UniProt G5EF15); test: inhibitors of POS-1/mex-3 RNA binding, dose response, biochemical, fluorescence polarization (AID 1964);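 note: purified POS-1 fused to maltose binding protein made in E. coli; potency of compounds blocking POS-1 binding to fluorescent RNA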
T4 sequence (G5EF15 whole entry): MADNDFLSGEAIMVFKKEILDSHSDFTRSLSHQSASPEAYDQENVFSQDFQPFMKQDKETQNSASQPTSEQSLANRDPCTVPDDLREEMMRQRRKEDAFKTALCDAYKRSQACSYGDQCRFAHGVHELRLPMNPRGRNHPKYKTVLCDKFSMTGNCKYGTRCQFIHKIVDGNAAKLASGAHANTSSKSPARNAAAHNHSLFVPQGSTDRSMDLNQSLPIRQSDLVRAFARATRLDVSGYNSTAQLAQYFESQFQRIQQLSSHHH

[8] = target: T5, Zinc finger protein mex-5 (Caenorhabditis elegans, UniProt Q9XUB2); test: MEX-5/TCR-2 RNA interaction inhibitors, dose response, biochemical, C. elegans, fluorescence polarization (AID 1960)
T5 sequence (Q9XUB2 whole entry): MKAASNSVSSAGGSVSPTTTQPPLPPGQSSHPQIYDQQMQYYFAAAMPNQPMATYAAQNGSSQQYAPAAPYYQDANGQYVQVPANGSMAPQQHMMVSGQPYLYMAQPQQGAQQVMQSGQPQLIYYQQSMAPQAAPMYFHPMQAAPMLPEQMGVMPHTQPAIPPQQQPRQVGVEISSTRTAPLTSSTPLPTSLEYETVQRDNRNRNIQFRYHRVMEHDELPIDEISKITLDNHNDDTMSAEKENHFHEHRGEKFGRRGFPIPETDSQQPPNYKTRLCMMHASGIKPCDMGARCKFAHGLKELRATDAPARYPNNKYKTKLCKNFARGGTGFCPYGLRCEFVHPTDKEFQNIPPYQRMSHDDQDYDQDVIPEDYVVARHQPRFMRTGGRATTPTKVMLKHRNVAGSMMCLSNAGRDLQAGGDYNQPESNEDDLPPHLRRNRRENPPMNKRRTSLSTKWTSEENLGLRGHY

[9] = target: T6, Sentrin-specific protease 1 (Homo sapiens, UniProt Q9P0U3); test: potency of human SENP1 inhibitors, dose response, biochemical, kinetic FRET (AID 651697); assay type: functional; conditions: read-out: IC50_Mean
T6 sequence (Q9P0U3 whole entry, the tested form may be a part): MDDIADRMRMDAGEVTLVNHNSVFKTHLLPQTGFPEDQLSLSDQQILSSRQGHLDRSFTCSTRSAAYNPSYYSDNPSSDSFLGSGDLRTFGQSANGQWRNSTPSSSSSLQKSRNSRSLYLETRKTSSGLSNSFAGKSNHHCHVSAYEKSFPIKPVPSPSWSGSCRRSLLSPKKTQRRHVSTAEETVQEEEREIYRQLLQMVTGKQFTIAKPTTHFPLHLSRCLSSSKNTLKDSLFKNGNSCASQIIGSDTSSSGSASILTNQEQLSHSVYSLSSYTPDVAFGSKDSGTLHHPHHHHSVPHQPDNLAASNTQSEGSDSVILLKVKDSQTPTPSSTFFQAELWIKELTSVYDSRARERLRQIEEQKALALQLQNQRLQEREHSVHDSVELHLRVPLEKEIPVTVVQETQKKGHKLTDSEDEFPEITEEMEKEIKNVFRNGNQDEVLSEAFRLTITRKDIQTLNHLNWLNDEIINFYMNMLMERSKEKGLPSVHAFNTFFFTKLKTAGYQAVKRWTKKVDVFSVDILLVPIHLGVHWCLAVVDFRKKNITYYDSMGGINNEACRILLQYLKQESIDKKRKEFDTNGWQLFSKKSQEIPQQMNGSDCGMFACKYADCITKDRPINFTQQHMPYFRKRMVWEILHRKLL

[10] = target: T6, Sentrin-specific protease 1; test: Dose response confirmation of small molecule inhibitors of the catalytic domain of the SUMO protease, SENP1 in a FRET assay.; assay type: functional; conditions: read-out: IC50_Mean
[11] = target: T7, Rac GTPase-activating protein 1 (Homo sapiens, UniProt Q9H0H5); test: MgcRacGAP GTPase-activating activity inhibitors, confirmation, biochemical, ADP Hunter fluorescence, primary and confirmatory (AID 624330); assay type: functional
T7 sequence (Q9H0H5 whole entry): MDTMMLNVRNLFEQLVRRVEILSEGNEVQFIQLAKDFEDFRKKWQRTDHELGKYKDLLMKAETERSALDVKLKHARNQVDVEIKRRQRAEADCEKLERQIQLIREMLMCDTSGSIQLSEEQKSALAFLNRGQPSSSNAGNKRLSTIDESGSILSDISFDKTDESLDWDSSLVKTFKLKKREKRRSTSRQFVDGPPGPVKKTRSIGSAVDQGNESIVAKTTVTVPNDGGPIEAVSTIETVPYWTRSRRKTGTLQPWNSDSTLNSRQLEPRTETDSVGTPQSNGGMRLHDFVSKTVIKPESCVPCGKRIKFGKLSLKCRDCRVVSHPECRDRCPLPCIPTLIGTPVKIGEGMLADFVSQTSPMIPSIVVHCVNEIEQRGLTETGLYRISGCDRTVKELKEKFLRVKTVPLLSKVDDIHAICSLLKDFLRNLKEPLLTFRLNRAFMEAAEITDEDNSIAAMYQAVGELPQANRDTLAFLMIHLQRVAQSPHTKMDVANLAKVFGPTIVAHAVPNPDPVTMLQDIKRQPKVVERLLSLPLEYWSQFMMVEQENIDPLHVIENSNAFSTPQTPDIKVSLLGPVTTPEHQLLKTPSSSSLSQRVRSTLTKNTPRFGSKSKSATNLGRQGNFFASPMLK

[12] = target: T8, Voltage-gated N-type calcium channel alpha-1B subunit/Amyloid beta A4 precursor protein-binding family A member 1 (Homo sapiens, UniProt Q00975+Q02410); assay type: protein assay
T8 sequence (Q00975 whole entry): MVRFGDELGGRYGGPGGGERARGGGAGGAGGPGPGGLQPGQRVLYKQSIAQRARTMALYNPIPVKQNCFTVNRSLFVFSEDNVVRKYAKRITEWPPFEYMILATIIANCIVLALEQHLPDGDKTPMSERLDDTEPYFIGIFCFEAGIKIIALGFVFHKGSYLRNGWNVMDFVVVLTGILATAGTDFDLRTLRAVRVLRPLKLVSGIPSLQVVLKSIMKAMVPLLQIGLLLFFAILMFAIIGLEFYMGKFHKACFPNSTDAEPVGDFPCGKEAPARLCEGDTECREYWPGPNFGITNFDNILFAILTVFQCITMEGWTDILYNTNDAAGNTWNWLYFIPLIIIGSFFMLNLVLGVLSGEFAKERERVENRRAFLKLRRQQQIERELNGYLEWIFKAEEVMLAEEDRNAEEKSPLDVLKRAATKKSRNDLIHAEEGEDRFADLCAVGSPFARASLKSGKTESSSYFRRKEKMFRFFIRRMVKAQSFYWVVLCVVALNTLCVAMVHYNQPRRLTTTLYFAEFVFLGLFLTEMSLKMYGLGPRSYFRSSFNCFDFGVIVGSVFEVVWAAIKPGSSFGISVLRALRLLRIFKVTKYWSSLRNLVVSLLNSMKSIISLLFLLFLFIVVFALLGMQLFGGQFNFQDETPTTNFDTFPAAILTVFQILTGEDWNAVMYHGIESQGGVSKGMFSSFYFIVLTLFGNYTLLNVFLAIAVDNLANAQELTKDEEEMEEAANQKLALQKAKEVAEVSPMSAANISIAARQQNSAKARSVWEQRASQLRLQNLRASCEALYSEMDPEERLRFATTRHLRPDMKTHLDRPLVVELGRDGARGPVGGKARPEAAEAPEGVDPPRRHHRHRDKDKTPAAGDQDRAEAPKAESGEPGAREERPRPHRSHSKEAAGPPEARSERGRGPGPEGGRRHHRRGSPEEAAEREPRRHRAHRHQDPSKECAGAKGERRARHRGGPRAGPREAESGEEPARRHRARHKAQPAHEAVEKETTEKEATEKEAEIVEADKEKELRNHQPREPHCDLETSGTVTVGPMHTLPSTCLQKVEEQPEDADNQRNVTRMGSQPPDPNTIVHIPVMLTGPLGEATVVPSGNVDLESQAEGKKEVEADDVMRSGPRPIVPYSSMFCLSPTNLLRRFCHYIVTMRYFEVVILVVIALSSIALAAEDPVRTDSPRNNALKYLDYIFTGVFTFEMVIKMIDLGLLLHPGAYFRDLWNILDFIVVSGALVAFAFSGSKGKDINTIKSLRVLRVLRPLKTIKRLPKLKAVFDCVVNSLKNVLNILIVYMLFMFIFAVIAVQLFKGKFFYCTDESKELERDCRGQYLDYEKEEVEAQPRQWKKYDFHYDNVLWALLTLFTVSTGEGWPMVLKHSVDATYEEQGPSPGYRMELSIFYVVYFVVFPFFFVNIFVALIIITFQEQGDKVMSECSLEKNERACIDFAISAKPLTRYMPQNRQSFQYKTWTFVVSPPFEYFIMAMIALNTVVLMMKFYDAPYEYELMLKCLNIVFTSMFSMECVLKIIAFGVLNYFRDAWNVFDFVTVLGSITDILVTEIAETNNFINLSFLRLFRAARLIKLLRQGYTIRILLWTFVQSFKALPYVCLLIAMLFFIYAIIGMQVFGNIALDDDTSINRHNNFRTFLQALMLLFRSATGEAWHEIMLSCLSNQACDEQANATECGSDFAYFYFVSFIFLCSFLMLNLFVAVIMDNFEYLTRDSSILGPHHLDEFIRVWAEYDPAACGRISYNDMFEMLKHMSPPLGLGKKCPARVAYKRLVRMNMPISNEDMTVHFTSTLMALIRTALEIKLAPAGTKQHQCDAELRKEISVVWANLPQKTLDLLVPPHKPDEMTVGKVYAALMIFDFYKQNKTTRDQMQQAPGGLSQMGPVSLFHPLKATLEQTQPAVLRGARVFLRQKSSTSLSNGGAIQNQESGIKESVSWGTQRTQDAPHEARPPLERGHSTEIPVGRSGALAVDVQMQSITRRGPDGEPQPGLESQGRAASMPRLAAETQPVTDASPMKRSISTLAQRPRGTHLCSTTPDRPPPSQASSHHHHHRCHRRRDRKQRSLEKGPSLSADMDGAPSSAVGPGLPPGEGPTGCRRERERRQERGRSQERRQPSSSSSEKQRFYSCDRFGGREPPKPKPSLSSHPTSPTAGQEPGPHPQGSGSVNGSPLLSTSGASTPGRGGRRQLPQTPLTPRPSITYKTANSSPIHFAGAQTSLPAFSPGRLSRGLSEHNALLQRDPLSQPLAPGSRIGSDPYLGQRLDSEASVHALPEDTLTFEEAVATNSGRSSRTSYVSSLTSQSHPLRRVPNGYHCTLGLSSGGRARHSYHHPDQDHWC
T8 sequence (Q02410 whole entry): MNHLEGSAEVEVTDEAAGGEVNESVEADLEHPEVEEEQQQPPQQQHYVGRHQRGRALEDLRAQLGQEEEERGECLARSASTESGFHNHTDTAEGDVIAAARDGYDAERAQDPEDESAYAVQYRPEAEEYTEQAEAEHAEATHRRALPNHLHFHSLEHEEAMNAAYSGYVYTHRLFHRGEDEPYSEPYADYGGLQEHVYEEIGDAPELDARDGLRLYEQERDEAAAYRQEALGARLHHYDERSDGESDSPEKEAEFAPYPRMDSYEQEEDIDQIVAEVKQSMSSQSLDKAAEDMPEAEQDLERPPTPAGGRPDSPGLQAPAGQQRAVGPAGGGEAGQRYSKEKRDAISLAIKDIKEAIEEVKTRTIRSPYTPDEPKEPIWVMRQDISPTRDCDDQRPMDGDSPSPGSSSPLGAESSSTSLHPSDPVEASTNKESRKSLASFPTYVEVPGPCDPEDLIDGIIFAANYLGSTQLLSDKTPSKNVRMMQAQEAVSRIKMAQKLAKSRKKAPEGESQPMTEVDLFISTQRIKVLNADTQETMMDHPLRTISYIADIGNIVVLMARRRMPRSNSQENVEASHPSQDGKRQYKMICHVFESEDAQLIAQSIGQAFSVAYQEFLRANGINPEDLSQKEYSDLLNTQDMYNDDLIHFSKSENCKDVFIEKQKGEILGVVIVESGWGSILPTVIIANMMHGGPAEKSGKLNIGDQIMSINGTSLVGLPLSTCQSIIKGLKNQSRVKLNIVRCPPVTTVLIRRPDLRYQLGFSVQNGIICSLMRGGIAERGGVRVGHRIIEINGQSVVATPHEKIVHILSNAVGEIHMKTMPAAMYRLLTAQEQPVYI

[13] = target: T8, Voltage-gated N-type calcium channel alpha-1B subunit/Amyloid beta A4 precursor protein-binding family A member 1; assay type: protein assay; remark: listed apart in the source
Beta-lactamase [14] = target: Beta-lactamase (Pseudomonas aeruginosa, UniProt Q79MP6);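 note: biochemical dose-response test of metallo-beta-lactamase enzyme inhibition, read out by epi-absorbance; purified recombinant IMP-1 metallo-beta-lactamase with nitrocefin as substrate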
Chain of Beta-lactamase (Pseudomonas aeruginosa, UniProt Q79MP6) (Q79MP6 whole entry): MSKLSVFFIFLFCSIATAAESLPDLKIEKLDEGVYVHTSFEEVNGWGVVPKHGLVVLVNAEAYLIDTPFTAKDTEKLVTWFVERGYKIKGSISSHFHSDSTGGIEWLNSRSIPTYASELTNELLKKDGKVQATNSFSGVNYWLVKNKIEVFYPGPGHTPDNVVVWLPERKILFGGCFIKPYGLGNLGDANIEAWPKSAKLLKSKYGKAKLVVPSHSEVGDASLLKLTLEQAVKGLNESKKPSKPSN

Beta-lactamase [15] = target: Beta-lactamase (Salmonella choleraesuis (strain SC-B67), UniProt Q5J463)
Chain of Beta-lactamase (Salmonella choleraesuis (strain SC-B67), UniProt Q5J463) (Q5J463 whole entry): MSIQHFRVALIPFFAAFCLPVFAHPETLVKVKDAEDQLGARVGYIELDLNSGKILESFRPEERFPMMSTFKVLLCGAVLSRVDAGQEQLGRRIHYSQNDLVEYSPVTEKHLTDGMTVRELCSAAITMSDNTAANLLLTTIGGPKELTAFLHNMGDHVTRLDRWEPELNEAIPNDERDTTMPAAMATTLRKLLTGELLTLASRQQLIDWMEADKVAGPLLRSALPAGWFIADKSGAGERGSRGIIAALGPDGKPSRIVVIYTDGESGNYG

ORF 73 = ORF 73 (Human herpesvirus 8, UniProt O40947); test: inhibitors of C-LANA binding to LBS DNA, dose response, biochemical, fluorescence polarization, cherry-picked samples (AID 504725); set-up: species or system Human gammaherpesvirus 8;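 note: fluorescence polarization of a labeled DNA duplex reporting LANA DNA binding; potency is for inhibitors that block LANA binding to the DNA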
Insulin-degrading enzyme [16] = target: T9, Insulin-degrading enzyme (Homo sapiens, UniProt P14735); test: activators of recombinant IDE enzyme, dose response, counter-screen for IDE activator project, biochemical, fluorescence polarization (AID 588681)
T9 sequence (P14735 whole entry): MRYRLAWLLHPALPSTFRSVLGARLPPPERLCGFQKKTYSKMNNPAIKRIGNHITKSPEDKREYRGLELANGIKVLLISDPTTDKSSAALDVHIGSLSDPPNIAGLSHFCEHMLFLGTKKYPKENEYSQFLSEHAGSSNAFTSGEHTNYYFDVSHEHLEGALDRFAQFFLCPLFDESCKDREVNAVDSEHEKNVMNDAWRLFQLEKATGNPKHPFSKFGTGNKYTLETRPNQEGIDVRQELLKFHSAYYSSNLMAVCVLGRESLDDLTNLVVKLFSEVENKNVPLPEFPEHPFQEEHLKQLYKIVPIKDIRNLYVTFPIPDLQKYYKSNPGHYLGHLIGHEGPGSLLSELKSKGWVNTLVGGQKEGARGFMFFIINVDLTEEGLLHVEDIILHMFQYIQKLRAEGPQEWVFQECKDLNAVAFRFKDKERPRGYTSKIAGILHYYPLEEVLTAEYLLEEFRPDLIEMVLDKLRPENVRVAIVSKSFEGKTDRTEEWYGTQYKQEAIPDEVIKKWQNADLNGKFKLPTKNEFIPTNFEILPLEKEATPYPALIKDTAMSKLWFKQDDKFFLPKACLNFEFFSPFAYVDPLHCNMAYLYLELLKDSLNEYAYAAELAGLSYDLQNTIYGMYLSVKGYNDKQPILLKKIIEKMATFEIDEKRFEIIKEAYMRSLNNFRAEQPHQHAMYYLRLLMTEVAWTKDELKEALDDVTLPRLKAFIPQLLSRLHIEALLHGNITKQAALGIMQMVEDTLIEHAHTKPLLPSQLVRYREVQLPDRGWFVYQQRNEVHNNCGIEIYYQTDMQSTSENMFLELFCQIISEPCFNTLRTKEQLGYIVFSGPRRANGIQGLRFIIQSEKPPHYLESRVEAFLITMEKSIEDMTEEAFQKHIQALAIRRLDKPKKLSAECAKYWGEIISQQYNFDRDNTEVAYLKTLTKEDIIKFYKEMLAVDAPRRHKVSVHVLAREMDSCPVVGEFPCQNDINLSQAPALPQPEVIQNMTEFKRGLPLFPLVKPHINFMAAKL

Keap1/Nrf2 = Keap1/Nrf2 (Homo sapiens, UniProt Q14145); test: Keap1-Nrf2 protein-protein interaction inhibitors, dose response, biochemical, fluorescence polarization, cherry-picked samples (AID 588683)
Insulin-degrading enzyme [17] = target: T9, Insulin-degrading enzyme; test: activators of endogenous IDE in HEK cells, dose response, cell-based, fluorescence polarization (AID 588439); assay type: functional
HEK293 [18] = test: HEK cell cytotoxicity by LDH release, dose response, cytotoxicity control for IDE activator project, fluorescence, HEK cells (AID 588440); assay type: functional, cell-based; conditions: Homo sapiens;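 note: cytotoxicity by LDH release measuring loss of membrane integrity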
HEK293 [19] = test: optical interference in Abeta FP readout, dose response, artefact control for IDE activator project, biochemical, fluorescence polarization (AID 588442); assay type: functional, cell-based; conditions: Homo sapiens

CCN1CCN(C(=S)c2ccc(Cl)cc2)CC1
inactive: IC50 [1] > 100 µM
active: IC50 [2] 5.06 µM | IC50 [3] 0.318 µM | IC50 [4] 8.91 µM | IC50 [5] 0.341 µM | IC50 [6] 12.8 µM

CC1(C)CC2=Nc3ccccc3SC2=C(O)C1
inactive: IC50 [9] 29 µM | IC50 [10] 42.4 µM
active: EC50 [7] 43.9 µM | EC50 [8] 59.3 µM | IC50 [11] 22.1 µM

O=C1c2cccc3c(O)ccc(c23)C(=O)N1Cc1ccco1
active: IC50 [12] 9.17 µM | IC50 (Beta-lactamase [15]) 7.5 µM | AC50 (ORF 73) 0.966 µM | AC50 (Keap1/Nrf2) 1.5 µM
inactive: IC50 [13] > 50 µM | IC50 (Beta-lactamase [14]) 14.1 µM | EC50 (Insulin-degrading enzyme [16]) > 54.7 µM | EC50 (Insulin-degrading enzyme [17]) > 54.7 µM | IC50 (HEK293 [18]) > 89.3 µM | EC50 (HEK293 [19]) > 54.7 µM
